{"source": "patent US7235649B2", "about": "“Isolated GRP94 ligand binding domain polypeptide and nucleic acid encoding same, and screening methods employing same” (Duke University, priority 2000, dated 2007)", "key": {"GRP94 [1]": {"target": "T1, GRP94 (Sus scrofa, UniProt Q29092)", "T1 sequence (Q29092 22-804)": "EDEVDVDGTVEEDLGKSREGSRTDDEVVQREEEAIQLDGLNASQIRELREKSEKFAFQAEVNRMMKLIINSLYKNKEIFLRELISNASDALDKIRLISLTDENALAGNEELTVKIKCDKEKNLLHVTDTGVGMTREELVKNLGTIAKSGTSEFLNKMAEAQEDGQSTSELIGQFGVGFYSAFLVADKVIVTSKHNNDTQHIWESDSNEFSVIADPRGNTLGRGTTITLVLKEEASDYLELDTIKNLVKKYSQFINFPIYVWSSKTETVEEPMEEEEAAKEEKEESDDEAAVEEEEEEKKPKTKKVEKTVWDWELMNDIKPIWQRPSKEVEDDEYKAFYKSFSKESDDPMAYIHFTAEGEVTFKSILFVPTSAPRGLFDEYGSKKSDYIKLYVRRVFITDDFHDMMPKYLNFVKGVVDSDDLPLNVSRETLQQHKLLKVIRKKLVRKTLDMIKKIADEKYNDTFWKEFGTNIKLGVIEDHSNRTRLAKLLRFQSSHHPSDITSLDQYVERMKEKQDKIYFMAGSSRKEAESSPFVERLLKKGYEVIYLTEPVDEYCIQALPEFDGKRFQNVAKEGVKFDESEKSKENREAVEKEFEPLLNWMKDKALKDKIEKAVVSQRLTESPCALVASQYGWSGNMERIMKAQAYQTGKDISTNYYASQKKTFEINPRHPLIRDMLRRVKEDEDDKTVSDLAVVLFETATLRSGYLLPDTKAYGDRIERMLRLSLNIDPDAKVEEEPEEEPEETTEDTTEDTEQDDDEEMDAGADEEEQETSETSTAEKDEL", "experiment": "GRP94 autophosphorylation assay", "format": "biochemical, porcine", "parameters": "GRP94 was purified from porcine pancreas rough microsomes; from tissue; host or cells: porcine pancreas rough microsomes", "details": "180 μM NECA or 180 μM radicicol in 3.6% DMSO, 5 μg/ml heparin, 5 mM GTP; 1 hour 37° C.", "method": "(§1) Phosphorylation Assays. […] For the casein kinase assay, 1 unit of casein kinase 11 was incubated as described above, with the addition of 4 μM casein. […] The 25 μl reaction mixtures were incubated at 37° C. for 1 hour and quenched by addition of 10% trichloroacetic acid. Samples were analyzed by 10% SDS-PAGE gels and the phosphorylated species were quantitated using a Fuji MACBAS1000™ phosphorimaging system (Fuji Medical Systems of Stamford, Conn.)."}, "casein kinase II": {"target": "casein kinase II (Homo sapiens, UniProt P68400)", "sequence (P68400 whole entry)": "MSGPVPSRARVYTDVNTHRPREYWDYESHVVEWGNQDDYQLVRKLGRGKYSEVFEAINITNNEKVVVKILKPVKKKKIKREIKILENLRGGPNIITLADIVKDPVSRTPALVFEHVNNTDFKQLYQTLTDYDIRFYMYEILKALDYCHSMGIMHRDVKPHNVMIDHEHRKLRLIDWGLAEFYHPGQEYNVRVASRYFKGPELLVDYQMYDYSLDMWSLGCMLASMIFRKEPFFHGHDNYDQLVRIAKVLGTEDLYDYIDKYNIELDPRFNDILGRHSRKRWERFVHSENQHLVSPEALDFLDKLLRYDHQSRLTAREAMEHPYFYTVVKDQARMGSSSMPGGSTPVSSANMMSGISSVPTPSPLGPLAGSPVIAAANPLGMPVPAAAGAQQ", "sequence (P67870 whole entry partner)": "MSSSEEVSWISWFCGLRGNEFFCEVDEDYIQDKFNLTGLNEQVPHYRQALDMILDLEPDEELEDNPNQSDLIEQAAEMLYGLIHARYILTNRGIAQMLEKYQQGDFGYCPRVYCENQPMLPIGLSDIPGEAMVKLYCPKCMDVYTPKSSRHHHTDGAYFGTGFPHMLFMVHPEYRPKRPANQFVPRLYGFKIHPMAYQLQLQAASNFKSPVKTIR", "experiment": "Casein kinase II assay with casein", "format": "biochemical", "details": "180 μM NECA or 180 μM radicicol in 3.6% DMSO, 5 μg/ml heparin, 5 mM GTP; 4 μM casein", "method": "as §1"}, "GRP94 [2]": {"target": "T1, GRP94", "experiment": "Fluorophore binding reactions with native or heat shocked GRP94 (fluorescence emission)", "details": "for fluorophore binding to heat shocked GRP94: 0.5 μM GRP94 heat shocked 15 minutes at 50° C., 5 μM probe"}, "[3]": {"target": "N-terminal nucleotide binding pocket of Hsp90 (Saccharomyces cerevisiae, UniProt P02829)", "sequence (P02829 whole entry)": "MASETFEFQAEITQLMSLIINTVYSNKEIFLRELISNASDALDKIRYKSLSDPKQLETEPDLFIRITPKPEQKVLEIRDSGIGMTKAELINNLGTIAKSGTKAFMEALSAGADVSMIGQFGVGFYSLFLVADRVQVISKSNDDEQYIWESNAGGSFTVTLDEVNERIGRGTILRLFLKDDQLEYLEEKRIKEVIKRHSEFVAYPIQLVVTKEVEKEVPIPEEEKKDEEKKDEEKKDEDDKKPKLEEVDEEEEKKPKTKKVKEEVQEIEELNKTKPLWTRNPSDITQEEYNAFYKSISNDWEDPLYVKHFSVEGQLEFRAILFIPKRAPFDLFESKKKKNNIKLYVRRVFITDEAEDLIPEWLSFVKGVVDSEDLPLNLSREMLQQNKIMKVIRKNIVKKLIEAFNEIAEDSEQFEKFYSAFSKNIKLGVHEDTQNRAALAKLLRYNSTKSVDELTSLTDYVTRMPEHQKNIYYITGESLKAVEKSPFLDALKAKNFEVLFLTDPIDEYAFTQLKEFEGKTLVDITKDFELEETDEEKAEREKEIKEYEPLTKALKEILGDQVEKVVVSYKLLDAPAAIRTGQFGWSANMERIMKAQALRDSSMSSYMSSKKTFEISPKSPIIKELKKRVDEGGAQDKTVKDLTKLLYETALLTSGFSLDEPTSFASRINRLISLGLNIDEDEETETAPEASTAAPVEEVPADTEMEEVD", "details": "cited from earlier work"}, "GRP94 [4]": {"target": "T1, GRP94", "experiment": "[3H]-NECA competitive displacement assay", "format": "binding, porcine", "parameters": "GRP94 was purified from porcine pancreas rough microsomes; from tissue; host or cells: porcine pancreas rough microsomes", "details": "for competition with [3H]-NECA for binding to GRP94 (adenosine ligands) / nucleoside base specificity: binding by [3H]-NECA competitive displacement: 20 nM [3H]-NECA; for competition with [3H]-NECA for binding to GRP94 (adenosine ligands): nominal (80 μM) Mg2+; for effect of excess Mg2+ on binding to GRP94: 10 mM Mg(OAc)2 vs nominal endogenous magnesium; for nucleoside base specificity: binding by [3H]-NECA competitive displacement: competitors all at 50 μM"}, "GRP94 [5]": {"target": "T1, GRP94", "experiment": "Tryptophan fluorescence (ligand-induced conformational change)", "details": "50 μM NECA, 50 μM geldanamycin, 2.5 mM ATP or 2.5 mM ADP, 1 hour at 37° C.", "description": "Tryptophan Fluorescence. Tryptophan fluorescence measurements were conducted in a FLUOROMAX™ spectrofluorometer (Spex Industries, Inc. of Edison, N.J.) with the slit widths set to 1 nm for both excitation and emission. […] All spectra were corrected by subtraction of buffer or buffer plus ligand samples. […] Samples were then cooled to room temperature, transferred to a quartz cuvette, and the spectra collected."}}, "data": [{"compound": "heparin", "values": [{"measurement": "effect on GRP94 autophosphorylation activity", "setting": "GRP94 [1]", "value": "markedly attenuated"}, {"measurement": "effect on casein kinase II activity", "setting": "casein kinase II", "value": "markedly attenuated"}]}, {"compound": "O=S(=O)(O)c1cccc2cccc(Nc3ccccc3)c12", "note": "[8-ANS, 1,8-anilinonaphthalenesulfonate]", "values": [{"measurement": "fluorophore binding to heat shocked GRP94", "setting": "GRP94 [2]", "value": "binds avidly following heat shock"}, {"measurement": "fluorophore binding to native GRP94", "setting": "GRP94 [2]; 0.5 μM native GRP94, 5 μM probe, 30 min at 37° C.", "value": "weak interactions with native GRP94"}]}, {"compound": "C[C@@H]1C[C@H]2O[C@@H]2/C=C\\C=C\\C(=O)Cc2c(Cl)c(O)cc(O)c2C(=O)O1", "note": "[radicicol]", "values": [{"measurement": "binding stoichiometry of radicicol to Hsp90", "setting": "[3]; Roe et al. (1999)", "value": "2 mol radicicol/mol Hsp90 dimer"}, {"measurement": "effect on casein kinase II activity", "setting": "casein kinase II", "value": "neither NECA nor radicicol, both of which bind to the N-terminal nucleotide binding domain of GRP94, significantly inhibit GRP94 derived or casein kinase II activity"}]}, {"compound": "Nc1ncnc2c1ncn2[C@@H]1O[C@H](CO)[C@@H](O)[C@H]1O", "note": "[adenosine]", "values": [{"measurement": "competition with [3H]-NECA for binding to GRP94 (adenosine ligands)", "setting": "GRP94 [4]", "value": "relative displacement activity approximating that observed for ADP"}, {"measurement": "effect of excess Mg2+ on binding to GRP94", "setting": "GRP94 [4]", "value": "without effect"}]}, {"compound": "Nc1ncnc2c1ncn2[C@@H]1O[C@H](COP(=O)(O)O)[C@@H](O)[C@H]1O", "note": "[AMP]", "values": [{"measurement": "competition with [3H]-NECA for binding to GRP94 (adenosine ligands)", "setting": "GRP94 [4]", "value": "effectively competed"}, {"measurement": "effect of excess Mg2+ on binding to GRP94", "setting": "GRP94 [4]", "value": "markedly stimulated"}]}, {"compound": "Nc1nc2c(ncn2[C@@H]2O[C@H](COP(=O)(O)OP(=O)(O)OP(=O)(O)O)[C@@H](O)[C@H]2O)c(=O)[nH]1", "note": "[GTP]", "values": [{"measurement": "effect on GRP94 autophosphorylation activity", "setting": "GRP94 [1]", "value": "markedly attenuated"}, {"measurement": "effect on casein kinase II activity", "setting": "casein kinase II", "value": "markedly attenuated"}, {"measurement": "nucleoside base specificity: binding by [3H]-NECA competitive displacement", "setting": "GRP94 [4]", "value": "little to no binding"}]}, {"compound": "Nc1ccn([C@@H]2O[C@H](COP(=O)(O)OP(=O)(O)OP(=O)(O)O)[C@@H](O)[C@H]2O)c(=O)n1", "note": "[CTP]", "values": [{"measurement": "nucleoside base specificity: binding by [3H]-NECA competitive displacement", "setting": "GRP94 [4]", "value": "little to no binding"}]}, {"compound": "Nc1ncnc2c1ncn2[C@H]1C[C@H](O)[C@@H](COP(=O)(O)OP(=O)(O)OP(=O)(O)O)O1", "note": "[deoxyATP]", "values": [{"measurement": "nucleoside base specificity: binding by [3H]-NECA competitive displacement", "setting": "GRP94 [4]", "value": "could bind"}]}, {"compound": "O=c1ccn([C@@H]2O[C@H](COP(=O)(O)OP(=O)(O)OP(=O)(O)O)[C@@H](O)[C@H]2O)c(=O)[nH]1", "note": "[UTP]", "values": [{"measurement": "nucleoside base specificity: binding by [3H]-NECA competitive displacement", "setting": "GRP94 [4]", "value": "little to no binding"}]}, {"compound": "CCC(=O)c1ccc2cc(N(C)C)ccc2c1", "note": "[Prodan, 6-propionyl-2-(dimethylamino)naphthalene]", "values": [{"measurement": "fluorophore binding to heat shocked GRP94", "setting": "GRP94 [2]", "value": "does not interact with the hydrophobic binding pocket(s) displayed by heat shocked GRP94"}]}, {"compound": "Nc1ncnc2c1ncn2[C@@H]1O[C@H](COP(=O)(O)OP(=O)(O)O)[C@@H](O)[C@H]1O", "note": "[ADP]", "values": [{"measurement": "affinity of N-terminal domain of Hsp90 for ADP relative to ATP", "setting": "[3]; Prodromou et al. (1997)", "value": "four-fold higher affinity than that observed for ATP"}, {"measurement": "change of GRP94 tryptophan fluorescence", "setting": "GRP94 [5]", "value": "the tryptophan fluorescence was decreased"}, {"measurement": "competition with [3H]-NECA for binding to GRP94 (adenosine ligands)", "setting": "GRP94 [4]", "value": "effectively competed"}, {"measurement": "effect of excess Mg2+ on binding to GRP94", "setting": "GRP94 [4]", "value": "markedly stimulated"}, {"measurement": "extent of competition of NECA binding to GRP94", "setting": "GRP94 [4]; FIGS. 10A–10C", "value": "wholly competed"}, {"measurement": "relative affinities for GRP94 in presence of Mg2+", "setting": "GRP94 [4]; excess Mg2+", "value": "nearly identical relative affinities"}]}]}
